Measured values reported in patent US7947720B2, “3,4-di-substituted cyclobutene-1,2-diones as CXC-chemokine receptor ligands” (Schering Corporation, priority 2001, dated 2011).
pKi: −log10 of the molar value.

Molecular target: T1, hCXCR2-CHO overexpressing membranes (Homo sapiens, UniProt P25025)
T1 construct: purchased Biosignal; host or cells: CHO cells (membranes)
T1 sequence (P25025 1-360): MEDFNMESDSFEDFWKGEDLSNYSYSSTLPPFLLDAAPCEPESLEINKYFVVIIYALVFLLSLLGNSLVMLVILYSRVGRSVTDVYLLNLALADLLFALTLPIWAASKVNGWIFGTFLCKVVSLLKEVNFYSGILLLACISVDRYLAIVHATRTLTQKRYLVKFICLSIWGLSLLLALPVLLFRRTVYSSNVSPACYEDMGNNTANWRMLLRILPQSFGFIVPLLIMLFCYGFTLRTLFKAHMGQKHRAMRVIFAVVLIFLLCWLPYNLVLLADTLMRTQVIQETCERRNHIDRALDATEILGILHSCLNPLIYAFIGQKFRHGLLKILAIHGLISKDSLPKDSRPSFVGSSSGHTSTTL
Assay: CXCR2 SPA Assay
Type: binding
Details: [125I]-IL-8 0.1 nM
Experimental: For each well of a 96 well plate, a reaction mixture of 4 μg hCXCR2-CHO overexpressing membranes (Biosignal) and 200 μg/well WGA-SPA beads (Amersham) in 100 μl was prepared in CXCR2 assay buffer (25 mM HEPES, pH 7.4, 2 mM CaCl2, 1 mM MgCl2). A 0.4 nM stock of ligand, [125I]-IL-8 (NEN), was prepared in the CXCR2 assay buffer. 20× stock solutions of test compounds were prepared in DMSO (Sigma). A 6× stock solution of GRO-α (R&D) was prepared in CXCR2 assay buffer. The above solutions were added to a 96-well assay plate (PerkinElmer or Corning) as follows: 10 μl test compound or DMSO, 40 ul CXCR2 assay buffer or GRO-α stock, 100 μl of reaction mixture, 50 μl of ligand stock (Final [Ligand]=0.1 nM). When 40× stock solutions of test compounds in DMSO were prepared, then the above protocol was used except instead 5 μl test compound or DMSO and 45 μl CXCR2 assay buffer were used. The assay plates were shaken for 5 minutes on a plate shaker, then incubated for 2-8 hours before cpm/well were determined in Microbeta Trilux counter (PerkinElmer). % Inhibition of total binding minus non-specific binding (250 nM Gro-α or 50 μM antagonist) was determined and IC50 values calculated.

## CC[C@@H](Nc1c(Nc2cccc(C(=O)N(C)C)c2O)c(=O)c1=O)c1cc(C(C)C)co1 [Example 360.106]
  pKi: 9.10
